Results from patent US20230134843A1, “TREATMENT OF STEM CELL DEFICIENCY” (OSPEDALE SAN RAFFAELE S.R.L., priority 2020, published 2023).
Entries after “also recorded” stand apart in the source; their conditions may differ.

Tests used:
NK1R = target: T1, NK1R (Mus musculus, UniProt P30548); assay: Epithelial corneal damage by corneal fluorescein staining, acute ocular GVHD mouse model; assay type: in vivo, mice; conditions: Fosaprepitant 10 mg/mL topically six times a day (BM+T+Fosa); from day 14, p<0.05
T1 construct: NK1R is expressed by both corneal epithelial and stem cell-like cells; from tissue; host or cells: cornea / ocular surface of live C57BL6/N mice (topical dosing in vivo)
Protocol: 10-week-old male BALB/C and C57BL/6N mice (Charles River Laboratory, Lecco, Italy) were used for all the experiments (n=5/each group). All mice were free from ocular surface disease at baseline. The housing conditions were controlled (temperature 22° C., light from 07:00-19:00, humidity 50%-60%), and fresh food and water were freely available. The animals were monitored 3 times per week for 28 days post-transplantation for in vivo slit-lamp microscopy imaging, ocular surface score and systemic GVHD score (FIG. 11A). Carbon dioxide inhalation and subsequent cervical dislocation were applied to euthanize the animals. All the experiments were approved by the Animal Care and Use Committee of the IRCCS San Raffaele Scientific Institute, in accordance with the ARVO Statement for the Use of Animals in Ophthalmic and Vision Research.
Allogenic BMT was conducted using the C57BL/6N and BALB/c mice as transplant donors and recipients, respectively. […]
Clinical examination was performed to evaluate the ocular disease progression. […] Tear production was quantified with phenol red thread test (Zone-Quick; Lacrimedics, Eastsound, Wash., USA). […] The length of the moistened thread was measured in both eyes and the average was used as lacrimal tear volume for comparative analysis.

γH2AX = assay: Western blot of γH2AX as senescence marker in corneal epithelium, disepithelization model (Example 1); assay type: in vivo, mice
Protocol: Eight-week-old C57BL6/N (Charles River, Calco, Italy) (WT mice, n=8) and B6.Cg-Tac1tm1Bbm/J (Jackson Laboratories, Bar Harbor, Me., USA) (TAC1-KO mice, n=8) male mice were used in all experiments. Each animal was anesthetized with intraperitoneal injection of tribromoethanol (250 mg/kg) and a topical anesthetic was applied to their ocular surface prior to the surgical procedure. Disepithelization was performed based on the model previously described, using a blunt spatula to scrap the entire corneal epithelium from limbus to limbus. After wounding, eyes were treated with ophthalmic moxifloxacin 1 time/day for 1 week to […]. Fourteen days after disepithelization mice were euthanized using carbon dioxide inhalation and subsequent cervical dislocation. Corneas were collected for immunostaining and western blot analysis. […]
For Western Blot analysis, corneal epithelium was isolated after 30 minutes of EDTA treatment (Sigma-Aldrich Corp., St. Louis, Mo., USA) at 37° C. […] Bands were quantified using Image Lab™ software (Version 6.0.1, Bio-Rad Laboratories, Hercules, Calif., USA).
The expression of p70 S6 Kinase (P70S6), phospho-p70 S6 Kinase (pP70S6), and phospho-histone 2-AX (γH2AX) was evaluated by Western Blot, as previously described in section 2.9. […] Bands were quantified using Image J software (National Institutes of Health, Bethesda, Md., USA).

T1 sequence (P30548 whole entry): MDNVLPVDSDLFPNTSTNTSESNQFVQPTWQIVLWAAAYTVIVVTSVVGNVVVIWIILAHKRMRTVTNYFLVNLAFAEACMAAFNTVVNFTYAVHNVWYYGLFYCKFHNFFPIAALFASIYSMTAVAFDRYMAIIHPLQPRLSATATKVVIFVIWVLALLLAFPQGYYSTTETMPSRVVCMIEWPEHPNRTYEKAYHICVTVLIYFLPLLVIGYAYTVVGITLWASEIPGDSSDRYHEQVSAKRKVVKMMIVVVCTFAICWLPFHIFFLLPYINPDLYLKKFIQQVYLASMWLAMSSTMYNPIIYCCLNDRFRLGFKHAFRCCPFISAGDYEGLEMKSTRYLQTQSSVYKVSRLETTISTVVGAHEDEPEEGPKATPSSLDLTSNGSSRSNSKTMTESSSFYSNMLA

Compound: C[C@@H](O[C@H]1OCCN(Cc2nc(=O)n(P(=O)(O)O)[nH]2)[C@H]1c1ccc(F)cc1)c1cc(C(F)(F)F)cc(C(F)(F)F)c1 [Fosaprepitant, [3-{[(2R,3S)-2-[(1R)-1-[3,5-bis(trifluoromethyl)phenyl]ethoxy]-3-(4-fluorophenyl)morpholin-4-yl]methyl}-5-oxo-2H-1,2,4-triazol-1-yl]phosphonic acid]
- corneal fluorescein staining compared to BM+T mice (NK1R): reduction; also recorded: significantly reduced
- H2AX expression in comparison to WT (in words) (γH2AX; Fosaprepitant 10 mg/mL (WT-FOSA), western blot): decreased
- decreased γH2AX expression in comparison to WT (γH2AX; Fosaprepitant 10 mg/mL topically four times a day for 14 days (WT-FOSA), p<0.05): 26%
